This is an account of results in ChEMBL document CHEMBL1135109, “Discovery and initial SAR of imidazoquinoxalines as inhibitors of the Src-family kinase p56(Lck)” (Bioorg Med Chem Lett, 2002).

The structures appear in SMILES notation.

The first assay concerns T-cell. Description: Compound was tested for potency against anti-CD3/anti-CD28 induced PBL proliferation of human peripheral blood T-cells.
For the molecule `Cc1cccc(C)c1Nc1nc2ccccc2n2cncc12`, the IC50 (usually the concentration that gives 50% inhibition) is 3000 nM.

Consider `COc1ccc2c(nc(Nc3c(C)cccc3Cl)c3cncn32)c1OC`, for which the IC50 was found to be 670 nM.

Molecule `Cc1cccc(Cl)c1Nc1nc2ccccc2n2cncc12` registered an IC50 of 7000 nM.

Turning to `Brc1ccccc1Nc1nc2ccccc2n2cncc12`, the 50% inhibitory concentration (IC50) stood at 17000 nM.

The target in another assay is Tyrosine-protein kinase Lck (Homo sapiens, UniProt P06239).
Chain of Tyrosine-protein kinase Lck (P06239 whole entry): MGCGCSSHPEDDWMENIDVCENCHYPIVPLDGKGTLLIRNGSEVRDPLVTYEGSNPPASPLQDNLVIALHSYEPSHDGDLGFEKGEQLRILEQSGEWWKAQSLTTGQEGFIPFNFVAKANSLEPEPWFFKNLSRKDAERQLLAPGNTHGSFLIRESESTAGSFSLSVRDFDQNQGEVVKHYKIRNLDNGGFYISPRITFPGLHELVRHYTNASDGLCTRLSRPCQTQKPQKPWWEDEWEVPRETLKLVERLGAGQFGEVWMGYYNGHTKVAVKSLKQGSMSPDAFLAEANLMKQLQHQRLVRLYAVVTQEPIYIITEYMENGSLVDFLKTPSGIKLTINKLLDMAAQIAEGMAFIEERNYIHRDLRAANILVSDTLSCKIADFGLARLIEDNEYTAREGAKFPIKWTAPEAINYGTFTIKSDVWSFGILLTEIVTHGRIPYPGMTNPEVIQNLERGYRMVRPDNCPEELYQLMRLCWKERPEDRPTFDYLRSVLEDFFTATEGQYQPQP
Description: Inhibitory activity against recombinant p56 Lck tyrosine kinase expressed as a His-tagged protein in insect cells using a baculovirus expression system
In the case of `Brc1ccccc1Sc1nc2ccccc2n2cncc12`, the IC50 is > 12500 nM.

Turning to `Cc1cccc(C)c1Nc1nc2ccccc2n2cncc12`, 16 nM corresponded to half-maximal inhibition (IC50).

In the case of `Cc1ncn2c1c(Nc1ccccc1Cl)nc1ccccc12`, half-maximal inhibition (IC50) required 30 nM.

`Cc1cccc(C)c1-c1nc2ccccc2n2cncc12`: the IC50 is > 12500 nM.

Regarding `COc1ccc2c(nc(Nc3c(C)cccc3Cl)c3cnc(/C=N/O)n32)c1OC`, half-maximal inhibition (IC50) required 4.3 nM.

Take `COc1ccccc1Nc1nc2ccccc2n2cncc12`: inhibition was half-maximal at 5520 nM (IC50).

The molecule `Fc1cccc(Nc2nc3ccccc3n3cncc23)c1` had an IC50 of 1330 nM.

Molecule `Cc1cc(C)c(Nc2nc3ccccc3n3cncc23)c(C)c1` came in with an IC50 of 40 nM.

For `COc1ccc2c(nc(Nc3c(C)cccc3Cl)c3cnc(C=O)n32)c1OC`, the IC50 stood at 10 nM.

Molecule `c1ccc(Nc2nc3ccccc3n3cncc23)cc1` returned an IC50 of 890 nM.

In the case of `CCCCCCNc1nc2ccccc2n2cncc12`, the IC50 is > 12500 nM.

Molecule `c1ccc2c(c1)nc(NC1CCCCC1)c1cncn12` displayed an IC50 of 3170 nM.

For the molecule `O=C(Nc1nc2ccccc2n2cncc12)c1c(Cl)cccc1Cl`, the IC50 amounted to 810 nM.

`COc1ccc2c(nc(Nc3c(C)cccc3Cl)c3cncn32)c1OC` had an IC50 of 2 nM.

Regarding `Fc1ccccc1Nc1nc2ccccc2n2cncc12`, 390 nM corresponded to half-maximal inhibition (IC50).

As to `COc1ccc2c(nc(Nc3c(C)cccc3Cl)c3cnc(CO)n32)c1OC`, the IC50 was 6.2 nM.

Molecule `COc1ccc2c(nc(Nc3c(C)cccc3Cl)c3cnc(C(O)C(C)C)n32)c1OC` (stereo not drawn) came in with an IC50 of 238 nM.

For `Brc1ccccc1Nc1nc2ccccc2n2cnc(-c3ccccc3)c12`, the IC50 is > 12500 nM.

The molecule `COc1ccc2c(nc(Nc3c(C)cccc3Cl)c3cnc(C(C)O)n32)c1OC` (stereo not drawn) gave an IC50 of 53 nM.

As for `COc1ccc2c(nc(Nc3c(C)cccc3Cl)c3cnc(CCCO)n32)c1OC`, the IC50 amounted to 69 nM.

In the case of `CN(c1ccccc1Cl)c1nc2ccccc2n2cncc12`, the IC50 was > 12500 nM.

With `Cc1cc(C)c(Nc2nc3ccccc3n3cncc23)c(Cl)c1`, half-maximal inhibition (IC50) required 30 nM.

For the molecule `Clc1cccc(Cl)c1Nc1nc2ccccc2n2cncc12`, the IC50 was found to be 9 nM.

For the molecule `c1ccc2c(c1)nc(Nc1ccncc1)c1cncn12`, the IC50 was > 12500 nM.

`c1ccc2c(c1)nc(NC1CC1)c1cncn12` returned an IC50 of 3170 nM.

`Cc1cccc(Cl)c1Nc1nc2ccccc2n2cncc12` returned a half-maximal inhibitory concentration (IC50) of 9 nM.

In the case of `O=C(Nc1nc2ccccc2n2cncc12)c1ccccc1Br`, the IC50 was 60 nM.

As to `c1ccc(CNc2nc3ccccc3n3cncc23)cc1`, the IC50 was > 12500 nM.

`Clc1cccc(CCNc2nc3ccccc3n3cncc23)c1` came in with an IC50 of 4390 nM.

`c1cncc(Nc2nc3ccccc3n3cncc23)c1` showed an IC50 of 820 nM.

Molecule `COc1ccc2c(nc(Nc3c(C)cccc3Cl)c3cnc(C)n32)c1OC` returned an IC50 of 7.4 nM.

As to `CCCNc1nc2ccccc2n2cncc12`, the IC50 was determined as 2680 nM.

`CCc1cccc(CC)c1Nc1nc2ccccc2n2cncc12` returned an IC50 of 1690 nM.

As to `Clc1ccccc1Nc1nc2ccccc2n2cncc12`, the IC50 is 60 nM.

As to `O=[N+]([O-])c1ccccc1Nc1nc2ccccc2n2cncc12`, the IC50 is > 12500 nM.

Turning to `Cc1ccccc1C(=O)Nc1nc2ccccc2n2cncc12`, the IC50 was > 12500 nM.

`Brc1ccccc1Oc1nc2ccccc2n2cncc12`: the IC50 came out at 3700 nM.

As to `Fc1cccc(F)c1Nc1nc2ccccc2n2cncc12`, the IC50 was 360 nM.

On to `Cc1ncc2c(Nc3ccccc3Br)nc3ccccc3n12`, for which half-maximal inhibition (IC50) required 180 nM.

On to `Brc1ccccc1Nc1nc2ccccc2n2ccnc12`, for which the IC50 was > 50000 nM.

Take `Brc1cccc(Br)c1Nc1nc2ccccc2n2cncc12`: the IC50 stood at 50 nM.

In turn, `CCNC(=O)c1ncc2c(Nc3c(C)cccc3Cl)nc3c(OC)c(OC)ccc3n12` showed a half-inhibitory concentration (IC50) of 665 nM.

On to `Brc1ccc(Nc2nc3ccccc3n3cncc23)cc1`, for which the IC50 is > 12500 nM.

As to `Cc1ccc(Nc2nc3ccccc3n3cncc23)c(Cl)c1`, the IC50 is 240 nM.
